Assay results taken from patent US5981698A, “Antimicrobial polypeptides” (CyberChemics, Inc., priority 1997, dated 1999).
Peptide text beside a SMILES is read from it.

How the values were obtained:
[1] = Biostability half-life, mammalian; assay type: in vitro ADME
Source text: (§1) Table III lists the approximate pharmacokinetics of synthetic peptides described in the present invention which solubilize readily, persist in conformationally active secondary structures in vivo, and induce lysis of representative bacteria, yeast and fungi. These determinations derive from optical density readings (O.D.) and rely on spectrophotometric absorbance from known initial concentrations as reference standards. The optimal therapeutic index for dosage and effective antimicrobial inhibition of a particular polypeptide or salt thereof range between 10-100 and follow routinely without elaborate laboratory determinations by those skilled in the art of pharmacokinetics and metabolic pathways using, for instance, various cytochrome and liver enzymes in vivo.

[2] = Biostability half-life, yeast; assay type: in vitro ADME
Source text: as §1

[3] = Biostability half-life, E. coli; assay type: in vitro ADME
Source text: as §1

[4] = Solubility (optical density readings); assay type: physicochemical
Source text: as §1

Staph aureus(25923) = assay: Minimum inhibitory concentration, broth microdilution in Mueller-Hinton media; assay type: cell-based; conditions: Staph aureus (ATCC 25923), Gram positive
Source text: (§2) Table III lists the minimum inhibitory concentration (ug/mL) for the various organisms assayed in Mueller-Hinton growth media. Details of the microbiological techniques employed are available to those skilled in the art, for instance from the American Type Tissue Culture Catalog (ATCC, Maryland) or DIFCO Manual, 10th Edition, 1984, pp. 78-80. For instance, a cultured solution of the bacterial strains Escherichia coli (American Tissue Culture Collection, Maryland) ATCC […] and Pseudomonas aeruginosa ATCC 27853 can be tested to model Gram-negative bacteria. Bacteria were grown overnight at 37 C. in Mueller-Hinton broth, reinoculated and incubated at 37 C. to reach the exponential phase of bacterial growth [i.e. a final bacterial suspension cantaining from 100,000 to 500,000 colony-forming units [(CFU)/ml]. In 96 well tissue culture plates, peptides dissolved in distilled water were added to the bacterial suspension at concentrations varying between 1000 to 2 ug/mL derived from serial dilutions, and then incubated overnight at 37 C.

Ps. Aruginosa(13883) = assay: as above; assay type: cell-based, Pseudomonas aeruginosa; conditions: Ps. Aruginosa (ATCC 13883), Gram negative
Source text: as §2

[5] = system: representative bacteria, yeast and fungi; assay: Antimicrobial action (general statement); assay type: cell-based
Source text: as §2, with “In 96 well tissue culture plates, peptides dissolved in distilled water were added to the bacterial suspension at concentrations varying between 1000 to 2 ug/mL derived from serial dilutions, and then incubated overnight at 37 C.” left out
Table III lists the approximate pharmacokinetics of synthetic peptides described in the present invention which solubilize readily, persist in conformationally active secondary structures in vivo, and induce lysis of representative bacteria, yeast and fungi. These determinations derive from optical density readings (O.D.) and rely on spectrophotometric absorbance from known initial concentrations as reference standards. […]

E. coli(25922) = assay: Minimum inhibitory concentration, broth microdilution in Mueller-Hinton media; assay type: cell-based, Escherichia coli; conditions: E. coli (ATCC 25922), Gram negative
Source text: as §2

Sac.cerv. = assay: Minimum inhibitory concentration, broth microdilution; assay type: cell-based; conditions: Yeast Sac.cerv.
Source text: as §2

Pichia = assay: as above; assay type: cell-based; conditions: Yeast Pichia
Source text: as §2

Row | Compound | Biostability Half-life Mammalian [1] [h] | Biostability Half-life Yeast [2] [h] | Biostability Half-life E. coli [3] [h] | Solubility [4] [ug/100 g] | Minimum Inhibitory Concentration (MIC) (Staph aureus(25923)) [µg/mL] | Minimum Inhibitory Concentration (MIC) (Ps. Aruginosa(13883)) [µg/mL] | antimicrobial potency [5] | solubility relative to B.t. fragment SEQ. 2 ([4]; ratio SEQ. 1 / SEQ. 2) [times] | Minimum Inhibitory Concentration (MIC) (E. coli(25922)) [µg/mL] | Minimum Inhibitory Concentration (MIC) (Sac.cerv.) [µg/mL] | Minimum Inhibitory Concentration (MIC) (Pichia) [µg/mL]
1 | CC[C@H](C)[C@H](NC(=O)[C@H](CC(C)C)NC(=O)[C@H](CC(N)=O)NC(=O)[C@H](CCCNC(=N)N)NC(=O)[C@H](CC(C)C)NC(=O)[C@H](CCC(=O)O)NC(=O)[C@H](CO)NC(=O)[C@H](CC(C)C)NC(=O)[C@@H](NC(=O)[C@H](CCCNC(=N)N)NC(=O)[C@H](CCCCN)NC(=O)CNC(=O)[C@@H](NC(=O)[C@H](CC(C)C)NC(=O)[C@H](CO)NC(=O)CNC(=O)[C@@H](N)C(C)C)C(C)C)[C@@H](C)CC)C(N)=O [SEQ. ID 2, VGSLVGKRILSELRNLI] (H-VGSLVGKRILSELRNLI-NH2) | 100.00 | 20.00 | 10.00 | 16.50 |  |  |  |  |  |  | 
2 | GIGTLLGKKKTKFLKNILKL [SEQ. ID 1, 20-residue antimicrobial peptide, modified from a Bacillus thuringiensis delta-endotoxin fragment] | 30.00 | 20.00 | 10.00 | 85.09 | 63.00 | 32.00 | sub-micromolar | 5 | 16.00 | 16.00 | 8.00
